Drawing on patent publication US20240182503A1, “MACROCYCLE COMPLEMENT FACTOR B INHIBITORS” (priority 2021, published 2024), this text covers IC50 for 19 compounds.

Where only a bound is given, the exact number is not on record here.

The first test addresses CVF-Bb complex (Homo sapiens (Human), UniProt P00751). Kind of test: biochemical. Type of test: biochemical.
Conditions: not given
The procedure: CVF-Bb complex, prepared from purified cobra venom factor, (3 nM) is incubated with a compound of the disclosure at various concentrations for 10 minutes at room temperature in PBS (pH 7.4) containing 10 mM MgCl2 and 0.05% (w/v) CHAPS. Human Complement C3 substrate is added to a final concentration of 1 μM. After 1 hour incubation at room temperature, the enzyme reaction is stopped by addition of a cocktail of concentrated pan-protease inhibitors. The product of the reaction, C3a, is quantified by means of an enzyme-linked-immunosorbent assay and/or denaturing gel electrophoresis (SDS-PAGE). IC50 values are calculated from percentage of inhibition of CVF-Bb activity as a function of test compound concentration.
As a reminder, the IC50 is the concentration at which inhibition is half-maximal. `COc1cc(C)c2[nH]ccc2c1CN1CC[C@H]2C[C@H]1c1ccc(C(=O)O)cc1/C=C/CCCCCCO2` [Ex. 38, (1^2R,1^4R,E)-11-((5-methoxy-7-methyl-1H-indol-4-yl)methyl)-1^1-oxa-1(2,4)-piperidina-2(1,2)-benzenacycloundecaphan-3-ene-2^4-carboxylic acid] showed an IC50 of 160 nM.

Regarding `COc1cc(C)c2[nH]ccc2c1CN1CC[C@H]2C[C@H]1c1ccc(C(=O)O)cc1/C=C\CCCCCO2` [Ex. 37, (1^2R,1^4R,Z)-1^1-((5-methoxy-7-methyl-1H-indol-4-yl)methyl)-10-oxa-1(2,4)-piperidina-2(1,2)-benzenacyclodecaphan-3-ene-2^4-carboxylic acid], the half-maximal inhibitory concentration (IC50) is 263 nM.

`CCO[C@H]1CCN(Cc2c(OC)cc(C)c3[nH]ccc23)[C@H](c2ccc(C(=O)NS(=O)(=O)CCNC(C)=O)cc2)C1` [Compar. Ex. 2, N-((2-acetamidoethyl)sulfonyl)-4-((2S,4S)-4-ethoxy-1-((5-methoxy-7-methyl-1H-indol-4-yl)methyl)piperidin-2-yl)benzamide, reference compound] returned an IC50 of 395 nM.

With `COc1cc(C)c2[nH]ccc2c1CN1CC[C@H]2C[C@H]1c1ccc(C(=O)NS(=O)(=O)C(C)C)cc1OCCCCCCO2` [Ex. 47, (1^2S,1^4S)-N-(isopropylsulfonyl)-11-((5-methoxy-7-methyl-1H-indol-4-yl)methyl)-3,10-dioxa-1(2,4)-piperidina-2(1,2)-benzenacyclodecaphane-2^4-carboxamide], the IC50 amounted to 649 nM.

Still in this test, the particulars now being: read-out: IC50.
Take `COc1cc(C)c2[nH]ccc2c1CN1CC[C@H]2C[C@H]1c1ccc(C(=O)NS(=O)(=O)C3CC3)cc1OCCCCCO2` [Ex. 60, (1^2S,1^4S)—N-(cyclopropylsulfonyl)-1^1-((5-methoxy-7-methyl-1H-indol-4-yl)methyl)-3,9-dioxa-1(2,4)-piperidina-2(1,2)-benzenacyclononaphane-2^4-carboxamide]: the IC50 worked out at 231 nM.

For `COc1cc(C)c2[nH]ccc2c1CN1CC[C@H]2C[C@H]1c1ccc(C(=O)NS(=O)(=O)c3ccccc3)cc1OCCCCCCO2` [Ex. 57, (1^2S,1^4S)-1^1-((5-methoxy-7-methyl-1H-indol-4-yl)methyl)-N-(phenylsulfonyl)-3,10-dioxa-1(2,4)-piperidina-2(1,2)-benzenacyclodecaphane-2^4-carboxamide], the IC50 amounted to 153 nM.

Consider `COc1cc(C)c2[nH]ccc2c1CN1CC[C@H]2C[C@H]1c1ccc(C(=O)O)cc1/C=C/CCCCCCCO2` [Ex. 64, (1^2S,1^4S,E)-1^1-((5-methoxy-7-methyl-1H-indol-4-yl)methyl)-12-oxa-1(2,4)-piperidina-2(1,2)-benzenacyclododecaphan-3-ene-2^4-carboxylic acid], for which the IC50 was 127 nM.

Turning to `COc1cc(C)c2[nH]ccc2c1CN1CC[C@H]2C[C@H]1c1ccc(C(=O)O)cc1CCCCCCCCCO2` [Ex. 72, (1^2S,1^4S)-1^1-((5-methoxy-7-methyl-1H-indol-4-yl)methyl)-12-oxa-1(2,4)-piperidina-2(1,2)-benzenacyclododecaphane-2^4-carboxylic acid], the IC50 is 129 nM.

For `COc1cc(C)c2[nH]ccc2c1CN1CC[C@H]2C[C@H]1c1ccc(C(=O)O)cc1OCCn1cc(nn1)CO2` [Ex. 12, (2^2S,2^4S,Z)-2^1-((5-methoxy-7-methyl-1H-indol-4-yl)methyl)-5′H-3,8-dioxa-2(2,4)-piperidina-5(4,1)-triazola-1(1,2)-benzenacyclooctaphane-1^4-carboxylic acid], the IC50 was 280 nM.

With `COc1cc(C)c2c(ccn2C(=O)OC(C)(C)C)c1CN1CC[C@@H]2C[C@@H]1c1ccc(C(=O)O)c3ccc(cc13)OCCC/C=C/CO2` [Ex. 51, (1^2R,1^4R,E)-1^1-((1-(tert-butoxycarbonyl)-5-methoxy-7-methyl-1H-indol-4-yl)methyl)-3,10-dioxa-1(2,4)-piperidina-2(1,7)-naphthalenacyclodecaphan-7-ene-2^4-carboxylic acid], the half-inhibitory concentration (IC50) was > 10000 nM.

Take `COc1cc(C)c2[nH]ccc2c1CN1CC[C@H]2C[C@H]1c1ccc(C(=O)O)cc1OCCCn1cc(nn1)CO2` [Ex. 13, (2^2S,2^4S,Z)-2^1-((5-methoxy-7-methyl-1H-indol-4-yl)methyl)-5′H-3,9-dioxa-2(2,4)-piperidina-5(4,1)-triazola-1(1,2)-benzenacyclononaphane-1^4-carboxylic acid]: the IC50 was 1110 nM.

Consider `COc1cc(C)c2[nH]ccc2c1CN1CC[C@H]2C[C@H]1c1ccc(C(=O)O)c3ccc(cc13)OCC/C=C/CO2` [Ex. 76, (1^2S,1^4S)-1^1-((5-methoxy-7-methyl-1H-indol-4-yl)methyl)-3,9-dioxa-1(2,4)-piperidina-2(1,7)-naphthalenacyclononaphane-2^4-carboxylic acid], for which the IC50 was 251 nM.

As for “(1^2S,1^4S)-N-(ethylsulfonyl)-1^1-((5-methoxy-7- methyl-1H-indol-4-yl)methyl)-3,10-dioxa- 1(2,4)-piperidina-2(1,2)- benzenacyclodecaphane-2^4-carboxamide [Ex. 45]”, the 50% inhibitory concentration (IC50) came out at 396 nM.

In the case of `COc1cc(C)c2[nH]ccc2c1CN1CC[C@H]2C[C@H]1c1ccc(-c3ccn[nH]3)cc1OCCCCCCO2` [Ex. 55, (1^2S,1^4S)-1^1-((5-methoxy-7-methyl-1H-indol-4-yl)methyl)-2^4-(1H-pyrazol-5-yl)-3,10-dioxa-1(2,4)-piperidina-2(1,2)-benzenacyclodecaphane], the IC50 stood at 2890 nM.

In the case of `COc1cc(C)c2[nH]ccc2c1CN1CC[C@H]2C[C@H]1c1ccc(C(=O)NS(=O)(=O)C(C)C)cc1OCCCCCO2` [Ex. 66, (1^2S,1^4S)—N-(isopropylsulfonyl)-1^1-((5-methoxy-7-methyl-1H-indol-4-yl)methyl)-3,9-dioxa-1(2,4)-piperidina-2(1,2)-benzenacyclononaphane-2^4-carboxamide], the IC50 was 411 nM.

With `COc1cc(C)c2[nH]ccc2c1CN1CC[C@H]2C[C@H]1c1ccc(C(=O)NS(=O)(=O)C3(C)CC3)cc1OCCCCCO2` [Ex. 67, (1^2S,1^4S)-1^1-((5-methoxy-7-methyl-1H-indol-4-yl)methyl)-N-((1-methylcyclopropyl)sulfonyl)-3,9-dioxa-1(2,4)-piperidina-2(1,2)-benzenacyclononaphane-2^4-carboxamide], the IC50 amounted to 330 nM.

As to `COc1cc(C)c2[nH]ccc2c1CN1CC[C@H]2C[C@H]1c1ccc(C(=O)NS(=O)(=O)C3CC3)cc1OCCCCCCO2` [Ex. 50, (12S,14S)—N-(cyclopropylsulfonyl)-11-((5-methoxy-7-methyl-1H-indol-4-yl)methyl)-3,10-dioxa-1(2,4)-piperidina-2(1,2)-benzenacyclodecaphane-24-carboxamide], the IC50 is > 10000 nM.

In the case of `COc1cc(C)c2[nH]ccc2c1CN1CC[C@H]2C[C@H]1c1ccc(C(=O)NS(C)(=O)=O)cc1/C=C/CCCCCO2` [Ex. 69, (1^2S,1^4S,E)-1^1-((5-methoxy-7-methyl-1H-indol-4-yl)methyl)-N-(methylsulfonyl)-10-oxa-1(2,4)-piperidina-2(1,2)-benzenacyclodecaphan-3-ene-2^4-carboxamide], the IC50 came to 581 nM.

In the case of `COc1cc(C)c2[nH]ccc2c1CN1CC[C@H]2C[C@H]1c1ccc(C(=O)O)cc1/C=C/CCCCCCCO2` [Ex. 73, (1^2S,1^4S,Z)-1^1-((5-methoxy-7-methyl-1H-indol-4-yl)methyl)-12-oxa-1(2,4)-piperidina-2(1,2)-benzenacyclododecaphan-3-ene-2^4-carboxylic acid], the 50% inhibitory concentration (IC50) stood at 271 nM.
